Assay results: patent US8361970B2, “Growth factor binding molecules” (University of South Florida, priority 2000, dated 2013)

Legend:
[1] = system: bFGF-activation of Erk1/Erk2; assay: bFGF activation of Erk1/Erk2 in NIH 3T3 cells; type: cell-based; details: concentrations as high as 100 μM
Method: (§1) In other experiments, starved NIH 3T3 cells (PDGF-AA, PDGF-BB, aFGF, bFGF), NIH 3T3 cells overexpressing EGFR. IGF-1R or Flk-1 and the human breast carcinoma SkBr3 that overexpresses ErbB2 (HRGβ) are pretreated with GFB-111 (100 μM) for 5 min before 10 min stimulation with the indicated growth factors at the concentrations shown above and aFGF (10 ng/ml), bFGF (50 ng/ml), IGF-1 (50 ng/ml) and HRGβ (10 ng/ml). Cell lysates are then immunoblotted with anti-phospho Erk1/Erk2 as described above.

[2] = system: angiogenesis in U87-MG tumors; assay: Angiogenesis: Factor VIII immunostaining and microvessel count in U87MG tumors; type: in vivo, nude mice; details: for Microvessel count (Mean ± SD) 250X / Microvessel count (Mean ± SD) 400X: U87-MG tumor
Method: (§2) On the indicated termination day of each nude mouse experiment described above, (see also Table 2), the tumors are extracted and half frozen at −70° C., and half is fixed in 10% neutral buffered formalin for 6 hrs. After fixation the tissue samples are processed into paraffin blocks. Four micrometer-thick tissue sections are obtained from the paraffin blocks and stained with hematoxylin and eosin (H&E) (Richard-Allan Scientific, Kalamazoo, Mich.) using standard histologic techniques. Tissue sections are also subjected to immunostaining for Factor VIII using the avidin biotin peroxidase complex technique (Vectastatin Elite ABC Kit, Vector, Burlingame, Calif.). Rabbit polyclonal FVIII antibody (Von Willebrand Factor, Dako Corporation, Carpinteria, Calif.) is used at 1:400 dilution, following microwave antigen retrieval (4 cycles of 5 minutes each on high in 0.1M citrate buffer).

[3] = target: EGF (epidermal growth factor) (Homo sapiens, UniProt P01133); assay: Binding to EGF by gel electrophoresis
Chain of EGF (epidermal growth factor) (P01133 971-1023 limits assumed, species assumed): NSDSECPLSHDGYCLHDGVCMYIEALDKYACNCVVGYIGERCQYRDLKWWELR

[4] = system: IGF-1-stimulated DNA synthesis; assay: IGF-1-stimulated DNA synthesis ([3H]-thymidine incorporation) in NIH 3T3 overexpressing IGFR; type: cell-based; details: concentrations as high as 100 μM
Method: Starved NIH 3T3 or NIH 3T3 overexpressing IGFR are treated for 16 hours with indicated concentrations of GFB-111 and either 10 ng/ml PDGF or 50 ng/ml IGF-1, respectively, then labeled for 2 hr (NIH 3T3) or 4 hr (IGFR) with ^3H-thymidine. Cells are then washed in PBS, lysed in 0.1N NaOH and spotted onto glass fiber filters. DNA is precipitated with ice cold ethanol then ^3H-thymidine incorporation quantified by scintillation counting.
The selectivity of PDGF-induced cellular responses, is evaluated by the selectivity of GFB-111 to inhibit growth factor-stimulated DNA synthesis using a [^3H]-thymidine incorporation assay. […] In contrast GFB-111 is ineffective at inhibiting IGF-1-stimulated DNA synthesis at concentrations as high as 100 μM (FIG. 4).

[5] = system: angiogenesis in C6 tumors; assay: Angiogenesis: microvessel count in C6 tumors; type: in vivo, nude mice
Method: as §2

[6] = system: angiogenesis in DaOY tumors; assay: Angiogenesis: microvessel count in DaOY tumors; type: in vivo, nude mice
Method: as §2

[7] = system: IGF-1 stimulated IGF-1R tyrosine phosphorylation; assay: Inhibition of IGF-1 stimulated IGFR tyrosine phosphorylation in IGFR/3T3 cells; type: cell-based; details: 100 μM; IGFR/3T3, IGF-1 stimulated
Method: The ability of the GFB library to block the ability of IGF-1 to stimulate the IFG-1 R tyrosine phosphorylation and MAP kinase activation is evaluated using the cell assay described above with IGF-1R/3T3 cells as target cell. […] A preferred embodiment of the invention is a compound that binds to an insulin-like growth factor-1, of the general structure III, wherein R is n-butyl, n-propyl, or benzyl, and X1, X2, X3, and X4 optionally comprise identical cyclic peptide loops of the general structure II, and wherein R1, R2, R3, and R4 are each amino acid side chains that define a tetrapeptide sequence, wherein said tetrapeptide is covalently attached at the amino and carboxy termini of said tetrapeptide to a 3-aminomethyl-5-aminobenzamide linking group.

[8] = system: Erk1/Erk2 activation in U87MG tumors; assay: Phosphorylated/activated Erk1/Erk2 in U87MG tumors in vivo; design: species or system nude mice; details: day 32, 100 and 200 mg per kg
Method: U87MG cells (human glioblastoma) are harvested, resuspended in PBS and injected s.c. into the right and left flank (10×10^6 cells per flank) of 8 week old female nude mice (Charles River, Wilmington, Mass.). When tumors reached about 100 mm^3, animals are dosed i.p. with 0.2 ml once daily. Control animals received a saline vehicle whereas treated animals are injected with GFB-111 (50, 100 or 200 mg/kg/day). The tumor volumes are determined by measuring the length (l) and the width (w) and calculating the volume (V=lw^2/2) as described previously. For detection of phosphorylated/activated Erk1/Erk2 in tumors in vivo, the tumors are extracted 20 min after the last GFB-111 injection on day 32, rinsed and the tissue homogenized in HEPES lysis buffer (30 mM Hepes, pH 7.5, 1% T-X-100, 10% glycerol, 10 mM NaCl, 5 mM MgCl2, 25 mM NaF, 1 mM EGTA, 2 mM Na3VO4, 10 μg/ml trypsin inhibitor, 25 μg/ml leupeptin, 10 μg/ml aprotinin, 2 mM PMSF). The lysates (50-100 μg) are electrophoresed on a 15% SDS-PAGE, transferred to nitrocellulose membranes and immunoblotted, with anti-phospho-p44/p42 MAPK (Thy202/Tyr204).

[9] = system: HRGβ-activation of Erk1/Erk2; assay: HRGβ activation of Erk1/Erk2 in SkBr3 breast carcinoma cells overexpressing ErbB2; type: cell-based, human; details: concentrations as high as 100 μM
Method: as §1

For `CCCCOc1c2cc(C(=O)Nc3cc4cc(c3)C(=O)NCC(=O)N[C@@H](CC(=O)O)C(=O)NCC(=O)N[C@@H](Cc3ccc(O)cc3)C(=O)NC4)cc1Cc1cc(C(=O)Nc3cc4cc(c3)C(=O)NCC(=O)N[C@@H](CC(=O)O)C(=O)NCC(=O)N[C@@H](Cc3ccc(O)cc3)C(=O)NC4)cc(c1OCCCC)Cc1cc(C(=O)Nc3cc4cc(c3)C(=O)NCC(=O)N[C@@H](CC(=O)O)C(=O)NCC(=O)N[C@@H](Cc3ccc(O)cc3)C(=O)NC4)cc(c1OCCCC)Cc1cc(C(=O)Nc3cc4cc(c3)C(=O)NCC(=O)N[C@@H](CC(=O)O)C(=O)NCC(=O)N[C@@H](Cc3ccc(O)cc3)C(=O)NC4)cc(c1OCCCC)C2` [GFB-111], the “bFGF-activation of Erk1/Erk2” value [1] was “minimally affected”, the “Microvessel count (Mean ± SD) 250X” value ([2]; 100 mpk) was 7.73 ± 2.61 and the “Microvessel count (Mean ± SD) 400X” value ([2]; 100 mpk) was 5.20 ± 1.71. For the same compound, the “Microvessel count (Mean ± SD) 250X” value ([2]; 200 mpk) was 5.13 ± 3.10, the “Microvessel count (Mean ± SD) 400X” value ([2]; 200 mpk) was 3.07 ± 1.94 and the “Inhibition of angiogenesis” value ([2]; U87MG tumors) was “strongly”. For the same compound, the “Factor VIII immunostaining in tumors” value ([2]; U87MG, day 32, 50, 100 and 200 mg per kg) was “decreased in a dose-dependent manner”, the “Binding to EGF” value [3] was “does not bind” and the “Inhibition of IGF-1-stimulated DNA synthesis” value [4] was “ineffective”. For the same compound, the “Microvessel count (Mean ± SD) 250X” value ([5]; C6 tumor, 50 mpk) was 14.27 ± 4.79, the “Microvessel count (Mean ± SD) 400X” value ([5]; C6 tumor, 50 mpk) was 7.97 ± 2.83 and the “Inhibition of angiogenesis” value ([5]; C6 tumors) was “to a lesser degree”. The “Microvessel count (Mean ± SD) 250X” value ([6]; DaOY tumor, 50 mpk) was 7.20 ± 2.52, the “Microvessel count (Mean ± SD) 400X” value ([6]; DaOY tumor, 50 mpk) was 4.80 ± 1.37 and the “Inhibition of angiogenesis” value ([6]; DaOY tumors) was “no effect”. The “% Inhibition at 100 μM IGF1R-Y-P” value [7] was −12.4%, the “Erk1/Erk2 activation in the tumors” value [8] was “blocked” and the “HRGβ-activation of Erk1/Erk2” value [9] was “minimally affected”.
